Data as given in paper PMC6222422, “Synthesis and Biological Evaluation of Novel Indole-Derived Thioureas” (Molecules : A Journal of Synthetic Chemistry and Natural …, 2018).
In brackets after ≈: the same amount, converted by molar mass.

How the values were obtained:
[1] = system: HIV-1 AZT^R strain (67N, 70R, 215F, 219Q); experiment: microbe, parasite or virus in culture; format: cell-based, Human Immunodeficiency Virus type-1; conditions: Human immunodeficiency virus 1, MT4, read-out: EC50 AZT^R
[2] = system: HIV-1 N119 (Y181C mutant); experiment: microbe, parasite or virus in culture; format: cell-based, Human Immunodeficiency Virus type-1; conditions: Human immunodeficiency virus 1, MT4, read-out: EC50 N119
[3] = system: HIV-1 EFV^R (K103R + V179D + P225H mutant); experiment: microbe, parasite or virus in culture; format: cell-based, Human Immunodeficiency Virus type-1; conditions: Human immunodeficiency virus 1, MT4, 96 h, read-out: EC50 EFV^R
[4] = system: HIV-1 A17 (K103N + Y181C mutant); experiment: microbe, parasite or virus in culture; format: cell-based, Human Immunodeficiency Virus type-1; conditions: Human immunodeficiency virus 1, MT4, 96 h, read-out: EC50 A17
in vitro [5] = conditions: human
S. aureus NCTC 4163 [6] = experiment: MIC, twofold serial agar dilution; format: cell-based; conditions: Staphylococcus aureus, NCTC4163, 18 h, 35 °C, read-out: minimal inhibitory concentrations (MIC)
S. aureus ATCC 25923 [7] = experiment: MIC, twofold serial agar dilution; format: cell-based; conditions: Staphylococcus aureus, ATCC25923, 18 h, 35 °C, read-out: minimal inhibitory concentrations (MIC)
S. aureus NCTC 4163 [8] = experiment: disc diffusion method; format: cell-based, Staphylococcus aureus; conditions: 5 µg/9 mm disc
[9] = target: S. aureus topoisomerase IV (Staphylococcus aureus, UniProt P0C1S7+P0C1U9); conditions: at 32 µg/mL
B. cereus ATCC 11778 [10] = experiment: MIC, twofold serial agar dilution; format: cell-based; conditions: Bacillus cereus, ATCC11778, 18 h, 35 °C, read-out: minimal inhibitory concentrations (MIC)
B. cereus ATCC 11778 [11] = experiment: disc diffusion method; format: cell-based, Bacillus cereus; conditions: 5 µg/9 mm disc
M. luteus ATCC 10240 [12] = experiment: disc diffusion method; format: cell-based, Micrococcus luteus; conditions: 5 µg/9 mm disc
B. subtilis ATCC 6633 [13] = experiment: disc diffusion method; format: cell-based, Bacillus subtilis; conditions: 5 µg/9 mm disc
M. luteus ATCC 9341 [14] = experiment: disc diffusion method; format: cell-based, Micrococcus luteus; conditions: 5 µg/9 mm disc
B. subtilis ATCC 6633 [15] = experiment: MIC, twofold serial agar dilution; format: cell-based; conditions: Bacillus subtilis, ATCC6633, 18 h, 35 °C, read-out: minimal inhibitory concentrations (MIC)
S. aureus ATCC 6538 [16] = experiment: disc diffusion method; format: cell-based, Staphylococcus aureus; conditions: 5 µg/9 mm disc
[17] = system: S. epidermidis ATCC 12228; experiment: MIC, twofold serial agar dilution; format: cell-based; conditions: Staphylococcus epidermidis, ATCC12228, 18 h, 35 °C, read-out: minimal inhibitory concentrations (MIC)
[18] = system: methicillin-resistant strains of S. aureus (MRSA); experiment: MIC against hospital strains; conditions: Staphylococcus aureus
S. epidermidis (MRSE) = experiment: MIC against hospital strains; conditions: Staphylococcus epidermidis
S. aureus ATCC 29213 [19] = experiment: MIC, twofold serial agar dilution; format: cell-based; conditions: Staphylococcus aureus, ATCC29213, 18 h, 35 °C, read-out: minimal inhibitory concentrations (MIC)
[20] = system: S. epidermidis ATCC 12228; experiment: disc diffusion method; format: cell-based, Staphylococcus epidermidis; conditions: 5 µg/9 mm disc
S. aureus ATCC 6538 [21] = experiment: MIC, twofold serial agar dilution; format: cell-based; conditions: Staphylococcus aureus, ATCC6538, 18 h, 35 °C, read-out: minimal inhibitory concentrations (MIC)
M. luteus ATCC 9341 [22] = experiment: MIC, twofold serial agar dilution; format: cell-based; conditions: Micrococcus luteus, ATCC9341, 18 h, 35 °C, read-out: minimal inhibitory concentrations (MIC)
M. luteus ATCC 10240 [23] = experiment: MIC, twofold serial agar dilution; format: cell-based; conditions: Micrococcus luteus, ATCC10240, 18 h, 35 °C, read-out: minimal inhibitory concentrations (MIC)
S. aureus ATCC 25923 [24] = experiment: disc diffusion method; format: cell-based, Staphylococcus aureus; conditions: 5 µg/9 mm disc
[25] = system: hospital methicillin-susceptible strains of S. aureus (MSSA); experiment: MIC against hospital strains; conditions: Staphylococcus aureus
S. aureus ATCC 29213 [26] = experiment: disc diffusion method; format: cell-based, Staphylococcus aureus; conditions: 5 µg/9 mm disc
in vitro [27] = conditions: Syrian hamster (Mesocricetus auratus)
BVDV = experiment: microbe, parasite or virus in culture; format: cell-based, bovine viral diarrhoea virus
VV = experiment: microbe, parasite or virus in culture; format: cell-based; conditions: Orthopoxvirus vaccinia, Vero 76, read-out: VV EC50
HSV-1 = experiment: microbe, parasite or virus in culture; format: cell-based, human herpes 1; conditions: Human alphaherpesvirus 1, Vero 76, read-out: HSV-1 EC50
VSV = experiment: microbe, parasite or virus in culture; format: cell-based; conditions: Vesicular stomatitis virus, Vero 76, read-out: VSV EC50
HIV-1 = experiment: microbe, parasite or virus in culture; conditions: Human immunodeficiency virus 1, MT4, read-out: HIV-1 EC50
Reo-1 = experiment: microbe, parasite or virus in culture; format: cell-based, reovirus type-1; conditions: Reovirus sp., BHK, read-out: Reo-1 EC50
CV-B5 = experiment: microbe, parasite or virus in culture; format: cell-based, coxsackievirus B5; conditions: Enterovirus B, CVB5, Vero 76, read-out: CV-B5 EC50
Sb-1 = experiment: microbe, parasite or virus in culture; format: cell-based, poliovirus type-1; conditions: Enterovirus C, Vero 76, read-out: Sb-1 EC50
YFV = experiment: microbe, parasite or virus in culture; format: cell-based; conditions: Yellow fever virus, BHK, read-out: YFV EC50
RSV = experiment: microbe, parasite or virus in culture; format: cell-based, human respiratory syncytial virus
in vitro [28] = conditions: African green monkey (Cercopithecus aethiops)
in vitro [29] = conditions: cattle (Bos taurus)

Chain of S. aureus topoisomerase IV (P0C1U9 whole entry): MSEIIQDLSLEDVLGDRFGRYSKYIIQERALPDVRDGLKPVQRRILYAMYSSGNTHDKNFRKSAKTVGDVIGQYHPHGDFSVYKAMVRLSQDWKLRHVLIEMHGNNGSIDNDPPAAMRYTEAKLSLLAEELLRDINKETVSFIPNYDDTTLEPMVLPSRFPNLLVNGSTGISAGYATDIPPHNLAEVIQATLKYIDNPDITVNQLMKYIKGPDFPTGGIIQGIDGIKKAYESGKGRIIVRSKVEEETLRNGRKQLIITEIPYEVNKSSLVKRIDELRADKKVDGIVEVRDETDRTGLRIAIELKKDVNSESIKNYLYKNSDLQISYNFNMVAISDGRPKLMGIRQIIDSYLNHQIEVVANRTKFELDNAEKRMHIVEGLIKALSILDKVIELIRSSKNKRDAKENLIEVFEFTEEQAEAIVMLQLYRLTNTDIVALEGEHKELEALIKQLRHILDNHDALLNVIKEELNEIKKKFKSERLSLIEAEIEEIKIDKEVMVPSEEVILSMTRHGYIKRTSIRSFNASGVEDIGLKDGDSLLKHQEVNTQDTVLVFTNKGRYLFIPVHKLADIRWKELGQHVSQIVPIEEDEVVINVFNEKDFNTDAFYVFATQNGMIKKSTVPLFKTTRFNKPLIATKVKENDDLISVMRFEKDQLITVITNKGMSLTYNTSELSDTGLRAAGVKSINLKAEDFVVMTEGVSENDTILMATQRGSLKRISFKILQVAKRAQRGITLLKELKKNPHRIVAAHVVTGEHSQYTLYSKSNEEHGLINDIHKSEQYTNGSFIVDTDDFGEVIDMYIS
Chain of S. aureus topoisomerase IV (P0C1S7 whole entry): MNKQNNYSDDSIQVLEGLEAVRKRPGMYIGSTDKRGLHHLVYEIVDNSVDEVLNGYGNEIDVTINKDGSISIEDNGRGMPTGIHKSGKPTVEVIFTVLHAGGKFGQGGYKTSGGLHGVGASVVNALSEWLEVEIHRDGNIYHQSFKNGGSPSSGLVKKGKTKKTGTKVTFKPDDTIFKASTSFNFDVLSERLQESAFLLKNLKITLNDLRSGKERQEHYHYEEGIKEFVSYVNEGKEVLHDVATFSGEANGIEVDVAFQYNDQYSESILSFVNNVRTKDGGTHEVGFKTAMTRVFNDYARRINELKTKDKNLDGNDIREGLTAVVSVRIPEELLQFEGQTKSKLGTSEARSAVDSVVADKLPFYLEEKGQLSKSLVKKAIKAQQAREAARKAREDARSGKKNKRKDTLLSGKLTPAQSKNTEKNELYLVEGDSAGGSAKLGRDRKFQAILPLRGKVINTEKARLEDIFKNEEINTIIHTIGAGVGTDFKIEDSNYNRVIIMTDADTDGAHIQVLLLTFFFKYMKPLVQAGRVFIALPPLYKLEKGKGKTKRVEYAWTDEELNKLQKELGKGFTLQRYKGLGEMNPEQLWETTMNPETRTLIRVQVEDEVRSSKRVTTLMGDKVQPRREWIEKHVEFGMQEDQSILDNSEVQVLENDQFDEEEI

SMILES: O=C1Nc2ccc(Cl)cc2[C@@](C#CC2CC2)(C(F)(F)F)O1 [Efavirenz]
- EC50 [1]: 0.001 ± 0.0002 µM
- EC50 [2]: 0.018 ± 0.002 µM
- EC50 [3]: 7 ± 0.8 µM
- EC50 [4]: 0.075 ± 0.009 µM
- CC50 (in vitro [5]): 40 µM

SMILES: O=C(O)c1cn(C2CC2)c2cc(N3CCNCC3)c(F)cc2c1=O [Ciprofloxacin, reference compound]
- MIC (S. aureus NCTC 4163 [6]): 0.25 µg/mL (≈ 0.754 µM)
- MIC (S. aureus ATCC 25923 [7]): 0.5 µg/mL (≈ 1.51 µM)
- diameter of growth inhibitory zone (GIZ) (S. aureus NCTC 4163 [8]): 26 mm
- inhibition of decatenation activity of S. aureus topoisomerase IV [9]: almost completely inhibited
- MIC (B. cereus ATCC 11778 [10]): 0.25 µg/mL (≈ 0.754 µM)
- diameter of growth inhibitory zone (GIZ) (B. cereus ATCC 11778 [11]): 26 mm
- diameter of growth inhibitory zone (GIZ) (M. luteus ATCC 10240 [12]): 25 mm
- diameter of growth inhibitory zone (GIZ) (B. subtilis ATCC 6633 [13]): 38 mm
- diameter of growth inhibitory zone (GIZ) (M. luteus ATCC 9341 [14]): 26 mm
- MIC (B. subtilis ATCC 6633 [15]): < 0.12 µg/mL
- diameter of growth inhibitory zone (GIZ) (S. aureus ATCC 6538 [16]): 28 mm
- MIC [17]: 0.25 µg/mL (≈ 0.754 µM)
- MIC ([18]; hospital S. aureus MRSA strain 389/10): 25 µg/mL (≈ 75.4 µM)
- MIC ([18]; hospital S. aureus MRSA strain 390/10): 100 µg/mL (≈ 302 µM)
- MIC ([18]; hospital S. aureus MRSA strain 391/10): 100 µg/mL (≈ 302 µM)
- MIC ([18]; hospital S. aureus MRSA strain 392/10): 100 µg/mL (≈ 302 µM)
- MIC ([18]; hospital S. aureus MRSA strain 393/10): 50 µg/mL (≈ 151 µM)
- MIC ([18]; hospital S. aureus MRSA strain 394/10): 25 µg/mL (≈ 75.4 µM)
- MIC ([18]; hospital S. aureus MRSA strain 399/10): 200 µg/mL (≈ 604 µM)
- MIC ([18]; hospital S. aureus MRSA strain 450/11): 100 µg/mL (≈ 302 µM)
- MIC ([18]; hospital S. aureus MRSA strain 451/11): 100 µg/mL (≈ 302 µM)
- MIC ([18]; hospital S. aureus MRSA strain 452/11): 200 µg/mL (≈ 604 µM)
- MIC (S. epidermidis (MRSE)): 6.25 µg/mL (≈ 18.9 µM)
- MIC (S. epidermidis (MRSE); hospital S. epidermidis MRSE strain 430/11): 0.8 µg/mL (≈ 2.41 µM)
- MIC (S. epidermidis (MRSE); hospital S. epidermidis MRSE strain 432/11): 50 µg/mL (≈ 151 µM)
- MIC (S. epidermidis (MRSE); hospital S. epidermidis MRSE strain 433/11): 50 µg/mL (≈ 151 µM)
- MIC (S. epidermidis (MRSE); hospital S. epidermidis MRSE strain 434/11): 50 µg/mL (≈ 151 µM)
- MIC (S. epidermidis (MRSE); hospital S. epidermidis MRSE strain 435/11): 0.4 µg/mL (≈ 1.21 µM)
- MIC (S. epidermidis (MRSE); hospital S. epidermidis MRSE strain 436/11): 0.4 µg/mL (≈ 1.21 µM)
- MIC (S. epidermidis (MRSE); hospital S. epidermidis MRSE strain 437/11): 0.8 µg/mL (≈ 2.41 µM)
- MIC (S. epidermidis (MRSE); hospital S. epidermidis MRSE strain 438/11): 0.4 µg/mL (≈ 1.21 µM)
- MIC (S. epidermidis (MRSE); hospital S. epidermidis MRSE strain 439/11): 50 µg/mL (≈ 151 µM)
- MIC (S. aureus ATCC 29213 [19]): 0.5 µg/mL (≈ 1.51 µM)
- diameter of growth inhibitory zone (GIZ) [20]: 30 mm
- MIC (S. aureus ATCC 6538 [21]): 0.25 µg/mL (≈ 0.754 µM)
- MIC (M. luteus ATCC 9341 [22]): 0.25 µg/mL (≈ 0.754 µM)
- MIC (M. luteus ATCC 10240 [23]): 1 µg/mL (≈ 3.02 µM)
- diameter of growth inhibitory zone (GIZ) (S. aureus ATCC 25923 [24]): 26 mm
- MIC ([25]; hospital S. aureus MSSA strain 440/11): 0.4 µg/mL (≈ 1.21 µM)
- MIC ([25]; hospital S. aureus MSSA strain 441/11): 0.4 µg/mL (≈ 1.21 µM)
- MIC ([25]; hospital S. aureus MSSA strain 442/11): 0.4 µg/mL (≈ 1.21 µM)
- MIC ([25]; hospital S. aureus MSSA strain 443/11): 0.4 µg/mL (≈ 1.21 µM)
- MIC ([25]; hospital S. aureus MSSA strain 444/11): 0.8 µg/mL (≈ 2.41 µM)
- MIC ([25]; hospital S. aureus MSSA strain 445/11): 0.4 µg/mL (≈ 1.21 µM)
- MIC ([25]; hospital S. aureus MSSA strain 446/11): 0.4 µg/mL (≈ 1.21 µM)
- MIC ([25]; hospital S. aureus MSSA strain 447/11): 0.8 µg/mL (≈ 2.41 µM)
- MIC ([25]; hospital S. aureus MSSA strain 448/11): 0.8 µg/mL (≈ 2.41 µM)
- MIC ([25]; hospital S. aureus MSSA strain 449/11): 0.4 µg/mL (≈ 1.21 µM)
- diameter of growth inhibitory zone (GIZ) (S. aureus ATCC 29213 [26]): 22 mm

SMILES: S=C(NCCc1ccccc1)NCCc1c[nH]c2ccccc12 [Compound 16, 1-(2-(1H-Indol-3-yl)ethyl)-3-phenethylthiourea]
- CC50 (in vitro [27]): 18 µM
- activity against BVDV (in words) (BVDV): showed activity
- EC50 (BVDV; Bovine viral diarrhea virus isolates and strains, MDBK, in Bos taurus, read-out: BVDV EC50): 46 µM
- EC50 (VV): > 100 µM
- EC50 (HSV-1): > 100 µM
- cytotoxicity for MDBK cell lines (in words) (MDBK cells): lack of cytotoxicity
- EC50 (VSV): > 100 µM
- EC50 (HIV-1): > 49 µM
- EC50 (Reo-1): > 18 µM
- EC50 (CV-B5): 18 ± 1.7 µM
- EC50 (Sb-1): > 100 µM
- EC50 (YFV): > 18 µM
- activity against RSV (in words) (RSV): moderately active
- EC50 (RSV; human respiratory syncytial virus, Vero 76, read-out: RSV EC50): 30 ± 2.6 µM
- CC50 (in vitro [28]): > 100 µM
- CC50 (in vitro [29]): > 100 µM
- CC50 (in vitro [5]): 49 µM
